Columns and labels:
[1] = test system: MRC-5 normal human lung fibroblasts; test: MTT cell viability assay, normal lung fibroblasts; type: cell-based; conditions: MRC5, MRC-5, 72 h
Protocol: (§1) Human cell lines were obtained from the American Type Culture Collection (ATCC, Manassas, VA, USA). Normal lung MRC-5 fibroblasts (ATCC® CCL-171™), SK-MES-1 lung cancer cells (ATCC® HTB-58™), and J82 bladder carcinoma cells (ATCC® HTB-1™) were grown as monolayers in Eagle’s minimum essential medium (MEM) with Earle’s salts, 2 mM L-glutamine, and 1.5 g/L sodium bicarbonate. Gastric epithelial AGS cells (ATCC® CRL-1739™) were grown as monolayers in Ham’s F-12 medium containing 1 mM L-glutamine and 1.5 g/L sodium bicarbonate. Promyelocytic leukemia HL-60 (ATCC® CCL-240™), colorectal adenocarcinoma HCT-15 (ATCC® CCL-225™), metastatic colorectal COLO205 (ATCC® CCL-222™), and breast cancer AU565 (ATCC® CRL-2351™, ER^−-HER2/neu^+) cells were grown in suspension in an RPMI-1640 medium containing 1 mM sodium pyruvate and 2.0 g/L sodium bicarbonate. Human breast cancer MCF-7 (ATCC® HTB-22™, ER^+-HER2/neu^−) and MDA-MB-231 (ATCC® HTB-26™, ER^−-HER2/neu^−) cells were grown as monolayers in DMEM medium. All media were supplemented with 10% heat-inactivated fetal bovine serum (HI-FBS), 100 IU/mL penicillin G, and 100 µg/mL streptomycin. Cells were maintained at 37 °C in a humidified incubator with 5% CO2.
(§2) MRC-5, SK-MES-1, J82, and AGS cells were seeded at a density of 5 × 10^4 cells/mL in 96-well plates. COLO205, HCT-15, MCF-7, MDA-MB-231, and AU565 cells were seeded at 1 × 10^5 cells/mL, while HL-60 cells were plated at 3 × 10^5 cells/mL. A volume of 100 µL of the cell suspension was added to each well. After 24 h, the compounds were added in increasing concentrations (ranging from 0 to 100 µM), and cells were incubated for 24, 48, or 72 h. The compounds were dissolved in DMSO and diluted in complete medium to a final concentration of 0.5% DMSO. Cells treated with 0.5% DMSO in complete medium were used as viability controls (100%). Etoposide (98% purity, Sigma-Aldrich, St. Louis, MO, USA) was used as the reference compound. Each concentration was tested in quadruplicate, and each experiment was performed twice using independent cell preparations. At the end of the incubation period, cell viability was determined using the MTT reduction assay. The results were transformed into percentages relative to controls, and IC50 values were obtained graphically from the dose–response curves. Results are presented as IC50 values ± standard deviation (SD).

[2] = test system: HCT-15 cells; test: MTT cell viability assay, colorectal carcinoma; type: cell-based, human; conditions: Homo sapiens
Protocol: as §1, §2

[3] = test system: AU565 cells; test: MTT cell viability assay, mammary carcinoma; type: cell-based, human; conditions: Homo sapiens
Protocol: as §1, §2

[4] = test system: AGS cells; test: MTT cell viability assay, gastric adenocarcinoma; type: cell-based; conditions: Homo sapiens, 72 h
Protocol: as §1, §2

[5] = test system: COLO205 cells; test: MTT cell viability assay, metastatic colorectal cancer; type: cell-based, human; conditions: Homo sapiens, COLO 205
Protocol: as §1, §2

[6] = test system: SK-MES-1 cells; test: MTT cell viability assay, lung cancer; type: cell-based; conditions: Homo sapiens, SK-MES-1, 72 h
Protocol: as §1, §2

[7] = test system: J82 cells; test: MTT cell viability assay, bladder carcinoma; type: cell-based; conditions: Homo sapiens, J82, 72 h
Protocol: as §1, §2

[8] = test system: HL-60 cells; test: MTT cell viability assay, leukemia; type: cell-based; conditions: Homo sapiens, HL-60, 72 h
Protocol: as §1, §2

[9] = test system: human cancer cell lines; test: MTT cell viability, summary over the human cancer cell lines; type: cell-based; conditions: nine human cancer cell lines, relative to BA, summary statement
Protocol: as §1, §2

[10] = test system: MCF-7 cells; test: Oxygen consumption assay (Clark-type electrode); type: cell-based, human; conditions: MCF-7, 10 and 20 µM
Protocol: Oxygen consumption of the tumor cells was measured polarographically using a Clark-type electrode (Yellow Springs Instruments, Dayton, OH, USA) placed horizontally in a cell of 0.6 mL volume at 25 °C, coupled to a YSI monitor (model 53). The electrode signal was recorded in a computer connected to a DI-148U module with a USB interface. Data were acquired using the Windaq Acquisition Waveform Recorder software v3.36 (DataQ Instruments, Akron, OH, USA). The test medium used contained 150 mM NaCl, 5 mM KCl, and 1 mM Tris-HCl, and pH 7.4. 5 mM glutamine was added with the cells and test compounds. Oxygen consumption was recorded when the cell aliquots (6 × 10^6 cells) were added. Oligomycin (1.5 μg/mL) was added as an inhibitor of the Fo subunit of ATP synthase prior to the incorporation of the compounds under study. FCCP (carbonyl cyanide-p-trifluoromethoxyphenylhydrazone, 50 nM) was used prior to the addition of test compounds as an internal control to calibrate the electrode system and confirm the maximum uncoupling capacity of the cells.

[11] = test system: MDA-MB-231 cells; test: MTT cell viability assay, mammary carcinoma; type: cell-based; conditions: Homo sapiens
Protocol: as §1, §2

[12] = test system: MCF-7 cells; test: MTT cell viability assay, mammary carcinoma; type: cell-based; conditions: Homo sapiens, MCF7
Protocol: as §1, §2

[13] = set-up: method as in PMID 17576843, PMID 17638699; conditions: oral administration, healthy individuals and patients with HIV, cited from earlier work

## C=C(C)[C@@H]1CC[C@]2(C(=O)O)CC[C@]3(C)[C@H](CC[C@@H]4[C@@]5(C)CC[C@H](O)C(C)(C)[C@@H]5CC[C@]43C)[C@@H]12 [BA, 3β-hydroxy-lup-20(29)-en-28-oic acid, reference compound]
[1]
  IC50: 56700 ± 4300 nM
[2]; HCT-15, 24 h
  IC50: 43800 ± 3640 nM
[2]; HCT-15, 48 h
  IC50: 9470 ± 3100 nM
[2]; HCT-15, 72 h
  IC50: 3890 ± 1300 nM
[3]; AU565, 24 h
  IC50: 33090 ± 170 nM
[3]; AU565, 48 h
  IC50: 9290 ± 980 nM
[4]
  IC50: 14100 ± 500 nM
[5]; COLO205, 24 h
  IC50: 97700 ± 1020 nM
[5]; COLO205, 48 h
  IC50: 74600 ± 2870 nM
[5]; COLO205, 72 h
  IC50: 34300 ± 2580 nM
[6]
  IC50: 44800 ± 2700 nM
[7]
  IC50: 32800 ± 1700 nM
[8]
  IC50: 21900 ± 1500 nM

## C=C(C)[C@@H]1CC[C@]2(C(=O)OCCCCC[P+](c3ccccc3)(c3ccccc3)c3ccccc3)CC[C@]3(C)C(CCC4[C@@]5(C)CC[C@H](O)C(C)(C)C5CC[C@]43C)C12 (stereo partly drawn) [BA-C5-TPP^+Br^−, 5-Triphenylphosphoniopentyl 3β-hydroxylup-20(29)-en-28-oate bromide]
[1]
  IC50: 830 ± 20 nM
[2]; HCT-15, 24 h
  IC50: 5170 ± 1320 nM
[2]; HCT-15, 48 h
  IC50: 1930 ± 360 nM
[2]; HCT-15, 72 h
  IC50: 1930 ± 320 nM
[3]; AU565, 24 h
  IC50: 5910 ± 80 nM
[3]; AU565, 48 h
  IC50: 1020 ± 180 nM
[9]
  increase in potency: over 100 fold
[4]
  IC50: 770 ± 80 nM
[5]; COLO205, 24 h
  IC50: 4320 ± 2400 nM
[5]; COLO205, 48 h
  IC50: 1620 ± 1150 nM
[5]; COLO205, 72 h
  IC50: 1610 ± 20 nM
[10]
  mitochondrial uncoupling effect: concentration-dependent uncoupling effect, though less pronounced than that of BA-C4-TPP^+Br^−
[6]
  IC50: 470 ± 40 nM
[11]; MDA-MB-231, 24 h
  IC50: 5500 ± 600 nM
[11]; MDA-MB-231, 48 h
  IC50: 2530 ± 650 nM
[12]; MCF-7, 24 h
  IC50: 8680 ± 1270 nM
[12]; MCF-7, 48 h
  IC50: 1770 ± 400 nM
[7]
  IC50: 1220 ± 10 nM
[8]
  IC50: 630 ± 50 nM

## C=C(C)[C@@H]1CC[C@]2(C(=O)OCCCCCC[P+](c3ccccc3)(c3ccccc3)c3ccccc3)CC[C@]3(C)C(CCC4[C@@]5(C)CC[C@H](O)C(C)(C)C5CC[C@]43C)C12 (stereo partly drawn) [BA-C6-TPP^+Br^−, 6-Triphenylphosphoniohexyl 3β-hydroxylup-20(29)-en-28-oate bromide]
[1]
  IC50: 1350 ± 100 nM
[2]; HCT-15, 24 h
  IC50: 9040 ± 2800 nM
[2]; HCT-15, 48 h
  IC50: 2890 ± 240 nM
[2]; HCT-15, 72 h
  IC50: 2400 ± 130 nM
[3]; AU565, 24 h
  IC50: 6370 ± 310 nM
[3]; AU565, 48 h
  IC50: 1330 ± 120 nM
[9]
  increase in potency: over 100 fold
[4]
  IC50: 1270 ± 20 nM
[5]; COLO205, 24 h
  IC50: 4870 ± 1430 nM
[5]; COLO205, 48 h
  IC50: 840 ± 390 nM
[5]; COLO205, 72 h
  IC50: 970 ± 290 nM
[10]
  mitochondrial uncoupling effect: not seen at the tested concentrations
[6]
  IC50: 680 ± 10 nM
[11]; MDA-MB-231, 24 h
  IC50: 7280 ± 530 nM
[11]; MDA-MB-231, 48 h
  IC50: 2660 ± 80 nM
[12]; MCF-7, 24 h
  IC50: 7690 ± 1320 nM
[12]; MCF-7, 48 h
  IC50: 4620 ± 530 nM
[7]
  IC50: 1710 ± 50 nM
[8]
  IC50: 910 ± 10 nM

## C=C(C)[C@@H]1CC[C@]2(C(=O)O)CC[C@]3(C)[C@H](CC[C@@H]4[C@@]5(C)CC[C@H](OC(=O)CC(C)(C)C(=O)O)C(C)(C)[C@@H]5CC[C@]43C)[C@@H]12 [Compound 4, 3-O-(3′,3′-Dimethylsuccinyl)-BA]
[13]; all studied doses
  tolerance: good tolerance at all studied doses
[13]
  half-life: long half-life
  oral absorption: rapid oral absorption

## COc1cc([C@@H]2c3cc4c(cc3[C@@H](O[C@@H]3O[C@@H]5CO[C@@H](C)O[C@H]5[C@H](O)[C@H]3O)[C@H]3COC(=O)[C@H]23)OCO4)cc(OC)c1O [Etoposide, reference compound]
[1]
  IC50: 3960 ± 210 nM
[4]
  IC50: 460 ± 40 nM
[6]
  IC50: 2610 ± 10 nM
[7]
  IC50: 2850 ± 20 nM
[8]
  IC50: 820 ± 10 nM

— article PMC12292992, “Betulinic Acid ω-Triphenylphosphonium Alkyl Esters: Antiproliferative Activities and In Silico Pharmacokinetic Profiles” (Biomedicines, 2025)
